Results reported in paper PMC10764104, “Discovery of Molecular Glue Degraders via Isogenic Morphological Profiling” (ACS Chemical Biology, 2023).

How the values were obtained:
RKO WT cells [1] = test: CellTiter-Glo cytotoxicity of selected compounds (manual, 72 h); assay type: cell-based, human; conditions: up to 10 μM
Method: (§1) Assessment of gene expression and essentiality in RKO WT
(§2) Fluorescence Polarization‐based competition assay
(§3) EC50 values were calculated with GraphPad Prism […]
(§4) the FP value of free tracer. […]
(§5) instructions. […] For the screening of the whole SuFEx
(§6) Data visualization was done with seaborn
(§7) (https://seaborn.pydata.org, version 0.12.2). […]
(§8) compounds. (F) Analysis of the cytotoxicity of compounds with treatment‐centric features related to FL2‐ […]
(§9) Synthesis and in Vitro Evaluation of Diverse Heterocyclic Diphenolic Compounds as Inhibitors of DYRK1A.
(§10) (7) Zhang, J.‐H.; Chung, T. D. Y.; Oldenburg, K. R. A Simple Statistical Parameter for Use in Evaluation and Validation of High Throughput Screening Assays. SLAS Discov.

HEK293T cells = test: as above; assay type: cell-based, human; conditions: up to 10 μM
Method: as §1, §2, §3, §4, §5, §6, §7, §8, §9, §10

recombinant DDB1-CRBN = biological target: T1, recombinant DDB1-CRBN (Homo sapiens, UniProt Q96SW2); test: Fluorescence polarization-based competition assay for CRBN binding; conditions: 200 nM CRBN-DDB1, 20 nM pomalidomide-fluorescein tracer 16, triplicates; read-out: FP_CRBN_binding: CRBN binding affinity, EC50
T1 construct: His; made in house; host or cells: High Five insect cells (baculovirus made and propagated in SF9 cells)
Method: Prior to screening the compound library in the isogenic CPA, we assessed their CRBN binding affinities using a fluorescence-polarization-based competition assay with recombinant DDB1-CRBN and the fluorescent tracer 16 (Figure S2). […] We also assessed the cytotoxicity of the CRBN binders in RKO wild-type (WT) cells to determine the appropriate treatment concentration. […]
as §2
(§11) Fluorescence Polarization assays were performed in 384‐well, Low Volume, Black, Round Bottom, Polystyrene Nonbinding surface Microplates (Corning, #4514). The test compounds were incubated with 200 nM CRBN‐DDB1 and 20 nM Pomalidomide‐fluorescein tracer 16 in 50 mM Tris‐HCl pH 7.5, 200 mM NaCl, 1 mM DTT, 0.02% Triton X‐ 100, and 0.1 µg/µL Bovine Serum Albumin (Sigma Aldrich, #A7030) in a total volume of 25 µL. Fluorescence polarization values were determined with a PerkinElmer Envision reader with FITC FP dual mirror and FITC FP 480 excitation filter and FITC FP 535 emission filters. Fluorescence polarization values of a 10x serial dilution (10 nM to 100 µM) of the test compounds were determined in triplicates. EC50 values were calculated with GraphPad Prism software (version 10.0.2) with a non‐linear fit function (4PL sigmoidal curve fit) adjusting the bottom constrain to the FP value of free tracer. […]

[2] = system: RKO WT, RKO CRBN KO and RKO CRBN OE; test: Isogenic cell painting assay, treatment-centric feature selection and CRBN-dependency prediction; assay type: cell-based, human
RKO WT cells [3] = conditions: method not stated for this control
Excerpt: Prior to screening the compound library in the isogenic CPA, we assessed their CRBN binding affinities using a fluorescence-polarization-based competition assay with recombinant DDB1-CRBN and the fluorescent tracer 16 (Figure S2). […] We also assessed the cytotoxicity of the CRBN binders in RKO wild-type (WT) cells to determine the appropriate treatment concentration.
as §1
Public datasets on the transcriptome and essentiality of a protein‐encoding gene for RKO (cell line ID: ACH‐000943) were retrieved from DepMap Public 23Q2 (https://depmap.org/portal/, accessed on 14 August 2023). […]
as §2
as §11, with “The test compounds were incubated with 200 nM CRBN‐DDB1 and 20 nM Pomalidomide‐fluorescein tracer 16 in 50 mM Tris‐HCl pH 7.5, 200 mM NaCl, 1 mM DTT, 0.02% Triton X‐ 100, and 0.1 µg/µL Bovine Serum Albumin (Sigma Aldrich, #A7030) in a total volume of 25 µL.” left out

GSPT2 = biological target: T2, GSPT2 (Homo sapiens, UniProt Q8IYD1+Q96SW2); test: Western blot analysis of GSPT1 and GSPT2 degradation in RKO WT or CRBN KO cells; assay type: cell-based; conditions: RKO WT or RKO CRBN KO, 10 µM, 16 h
T2 construct: endogenous in cells; host or cells: RKO WT or RKO CRBN KO
Method: (A) Structure of FL2-14 comprising fluorosulfate scaffold FL2 (black) and tail group modification 14 (blue). (B) DMSO-normalized quantitative proteomics after 16 h of treatment with FL2-14 (10 μM) in RKO WT (n = 2). […] (C) Structural alignment of AlphaFold models of GSPT1 (AF-P15170-F1-model_v4 in gray) and GSPT2 (AF-Q8IYD1-F1-model_v4 in blue). (D) Validation of GSPT2 degradation by FL2-14. […] (E) Dose–response of FL2-14 in RKO and HEK293T cells. Cells were treated with the FL2-14 (0 to 10 μM) for 16 h. (F) Degradation of GSPT2^WT or GSPT2^G566N. […]
Analysis of targeted protein degradation of GSPT1 and GSPT2 via western blot For degradation assays 800 000 RKO WT or CRBN KO cells were seeded 1 day prior to the treatment in 6 well plates.
Then, cells were treated with 10 µM of the compounds for 16 hours if not otherwise stated. Cells were harvested, lysed for 30 min at 37°C in lysis buffer (1x PBS, 1% SDS, 2 mM MgCl2, 1x Halt Protease inhibitor cocktail, 50 Units Benzonase) and cleared for 30 min at 18 000 x g at 4°C. Protein concentration was determined with the Pierce 660 nm Protein Assay using the Ionic Detergent Compatibility Reagent (Thermo Scientific). 10 µg total proteome were subjected to western blot analysis by adding 4x Bolt™ LDS Sample Buffer (Thermo Scientific). Samples were boiled at 95°C for 5 min and subjected to gel electrophoresis with Bolt™ 4‐12% Bis‐Tris Plus Gels (Thermo Scientific) with Bolt™ MES SDS Running Buffer (Thermo Scientific). Membranes were blocked with 5% fat‐free milk in TBS‐T (20 mM Tris, 150 mM NaCl, 0.1% Tween, pH 7.6) for 1 h at room temperature and washed subsequently 3x 5 min with TBS‐
T. Afterwards, they were incubated for 1 h at room temperature with either GSPT1 antibody (Abcam ab49878, rabbit, […]
rabbit, 1:10 000), CRBN (Cell Signaling Technologies, CST71810S, rabbit, 1:1000), or GAPDH (SantaCruz sc‐47724, mouse, 1:1 000). Followed by washing 3x 5 min with TBS‐T and incubation for 1 h at room temperature with either Goat ANTI‐RABBIT IgG StarBright™ Blue 700 (Bio‐Rad, #12004162, 1:10 000) or Goat anti‐Mouse IgG (H+L) Cross‐ Adsorbed Secondary Antibody, DyLight™ 800 (Bio‐Rad, STAR117D800GA, 1:10 000) fluorophore‐conjugated

| Structure (SMILES) | EC50 (RKO WT cells [1]) [nM] | EC50 (HEK293T cells) [nM] | EC50 (recombinant DDB1-CRBN) [nM] | also measured |
| --- | --- | --- | --- | --- |
| CN(C)c1ncc(CN(C)S(=O)(=O)Oc2cccc(Nc3ccc4c(c3)C(=O)N(C3CCC(=O)NC3=O)C4=O)c2)cn1 (centres unmarked) [FL1-18] | > 10000 | > 10000 | 363 | – |
| CN1C(=O)CCC(N2C(=O)c3cccc(N)c3C2=O)C1=O (centres unmarked) [Methylated pomalidomide] | – | – | – | Number_Features: number of treatment-centric features selected [2]: 0 |
| O=C1CCC(N2C(=O)c3ccc(Nc4cccc(OS(=O)(=O)N5CC(CCO)C5)c4)cc3C2=O)C(=O)N1 (centres unmarked) [FL1-2] | > 10000 | > 10000 | 419 | – |
| COc1cc(N2CCN(CCOCCOCCNC(=O)CNc3cccc4c3C(=O)N(C3CCC(=O)NC3=O)C4=O)CC2)ccc1Nc1ncc(Cl)c(Nc2ccccc2S(=O)(=O)C(C)C)n1 (centres unmarked) [TL 13-12] | – | – | – | change of cell size across isogenic RKO cells ([2]; 1.5 μM, RKO CRBN OE vs RKO CRBN KO): enlarges cells drastically in a CRBN-dependent manner |
| O=C1CCC(N2C(=O)c3ccc(Nc4cccc(OS(=O)(=O)N5CCC(c6ccco6)C5)c4)cc3C2=O)C(=O)N1 (centres unmarked) [FL1-12] | > 10000 | > 10000 | 2780 | – |
| Nc1cccc2c1C(=O)N(C1CCC(=O)NC1=O)C2=O (centres unmarked) [Pomalidomide, reference compound] | – | – | – | cytotoxicity to RKO WT (RKO WT cells [3]): not cytotoxic |
| CN(Cc1ncc(C2CC2)o1)S(=O)(=O)Oc1cccc(Nc2ccc3c(c2)C(=O)N(C2CCC(=O)NC2=O)C3=O)c1 (centres unmarked) [FL1-14] | – | – | 395 | GSPT1/2 degradation by CRBN binders with tail group modification 14 (GSPT2): weak degradation of GSPT2 |
